Laboratory results reported in patent US9133235B2, “Macrocyclic antagonists of the motilin receptor for treatment of gastrointestinal dysmotility disorders” (Ocera Therapeutics, Inc., priority 2006, dated 2015).

Columns and labels:
Format in all cases: in vitro ADME
CYP1A2 = molecular target: T1, CYP1A2 (Homo sapiens, UniProt P05177); experiment: Cytochrome P450 inhibition, CYP1A2; conditions: Supersomes; read-out: IC50 (μM) 1A2
T1 construct: purchased BD Gentest, Becton-Dickinson (Supersomes); host or cells: insect cells (microsomes)
T1 sequence (P05177 1-516): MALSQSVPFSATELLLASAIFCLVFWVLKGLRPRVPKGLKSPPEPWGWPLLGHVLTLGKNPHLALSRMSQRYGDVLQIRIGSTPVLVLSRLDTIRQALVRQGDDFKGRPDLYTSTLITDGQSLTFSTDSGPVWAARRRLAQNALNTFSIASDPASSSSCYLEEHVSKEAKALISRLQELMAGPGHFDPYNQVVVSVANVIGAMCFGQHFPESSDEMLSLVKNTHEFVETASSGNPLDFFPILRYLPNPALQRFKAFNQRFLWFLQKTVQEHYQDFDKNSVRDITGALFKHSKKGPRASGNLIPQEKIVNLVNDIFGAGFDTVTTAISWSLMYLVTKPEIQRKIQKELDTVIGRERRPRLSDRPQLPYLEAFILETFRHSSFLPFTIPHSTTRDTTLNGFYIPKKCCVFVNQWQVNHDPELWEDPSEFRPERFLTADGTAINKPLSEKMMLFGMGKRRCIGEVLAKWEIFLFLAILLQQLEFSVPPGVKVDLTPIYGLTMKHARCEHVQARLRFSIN
Text: (§1) F. Assay for Cytochrome P450 Inhibition
(§2) Cytochrome P450 enzymes are implicated in the phase I metabolism of drugs. The majority of drug-drug interactions are metabolism-based and, moreover, these interactions typically involve inhibition of cytochrome P450s. Six CYP450 enzymes (CYP1A2, CYP2C8, CYP2C9, CYP2C19, CYP2D6 and CYP3A4) appear to be commonly responsible for the metabolism of most drugs and the associated drug-drug interactions. Assays to determine the binding of compounds of the invention to the various metabolically important isoforms of cytochrome P450 metabolizing enzymes are commercially available, for example NoAb BioDiscoveries (Mississaugua, ON, Canada) and Absorption Systems (Exton, Pa., USA). As well, a number of appropriate methods have been described or reviewed in the literature. (White, R. E. Ann. Rev. Pharmacol. Toxicol. 2000, 40, 133-157; Li, A. P. Drug. Disc. Today 2001, 6, 357-366; Turpeinen, M.; Korhonen, L. E. Tolonen, A.; et al. Eur. J. Pharm. Sci. 2006, 29, 130-138.)
(§3) The concentration of the inhibitor or test compound that inhibited metabolite formation by 50% (IC50) was calculated by non-linear regression analysis of the % inhibition vs. log concentration (M) curve.

CYP2B6 = molecular target: T2, CYP2B6 (Homo sapiens, UniProt P20813); experiment: Cytochrome P450 inhibition, CYP2B6; conditions: Supersomes; read-out: IC50 (μM) 2B6
T2 construct: purchased BD Gentest, Becton-Dickinson (Supersomes); host or cells: insect cells (microsomes)
T2 sequence (P20813 1-491): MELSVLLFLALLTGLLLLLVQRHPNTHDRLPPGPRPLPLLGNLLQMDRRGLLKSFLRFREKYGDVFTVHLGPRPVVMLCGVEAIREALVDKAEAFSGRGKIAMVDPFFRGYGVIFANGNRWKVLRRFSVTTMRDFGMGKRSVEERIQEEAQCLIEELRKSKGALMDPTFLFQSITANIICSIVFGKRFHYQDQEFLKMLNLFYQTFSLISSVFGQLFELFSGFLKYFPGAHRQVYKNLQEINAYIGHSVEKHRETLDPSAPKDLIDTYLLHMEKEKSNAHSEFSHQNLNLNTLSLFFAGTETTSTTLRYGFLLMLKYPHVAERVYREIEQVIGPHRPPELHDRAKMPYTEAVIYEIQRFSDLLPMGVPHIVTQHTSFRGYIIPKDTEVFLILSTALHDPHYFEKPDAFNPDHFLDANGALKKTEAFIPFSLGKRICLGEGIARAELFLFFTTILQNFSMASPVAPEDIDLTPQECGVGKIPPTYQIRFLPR
Text: as §1, §2, §3

CYP2C8 = molecular target: T3, CYP2C8 (Homo sapiens, UniProt P10632); experiment: Cytochrome P450 inhibition, CYP2C8; conditions: Supersomes; read-out: IC50 (μM) 2C8
T3 construct: purchased BD Gentest, Becton-Dickinson (Supersomes); host or cells: insect cells (microsomes)
T3 sequence (P10632 1-490): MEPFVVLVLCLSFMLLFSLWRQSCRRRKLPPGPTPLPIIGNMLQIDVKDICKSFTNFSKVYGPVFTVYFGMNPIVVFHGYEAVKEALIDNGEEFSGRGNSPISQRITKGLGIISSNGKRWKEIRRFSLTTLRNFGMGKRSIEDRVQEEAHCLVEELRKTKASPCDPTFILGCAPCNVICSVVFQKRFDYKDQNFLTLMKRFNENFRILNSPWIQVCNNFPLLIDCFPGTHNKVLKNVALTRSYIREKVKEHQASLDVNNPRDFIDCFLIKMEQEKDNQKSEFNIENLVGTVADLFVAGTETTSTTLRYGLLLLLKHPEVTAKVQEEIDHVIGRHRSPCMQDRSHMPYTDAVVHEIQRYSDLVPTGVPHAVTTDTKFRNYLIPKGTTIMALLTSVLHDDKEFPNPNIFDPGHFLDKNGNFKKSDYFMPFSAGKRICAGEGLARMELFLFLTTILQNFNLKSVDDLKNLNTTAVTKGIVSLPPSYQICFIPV
Text: as §1, §2, §3

CYP2C9 = molecular target: T4, CYP2C9 (Homo sapiens, UniProt P11712); experiment: Cytochrome P450 inhibition, CYP2C9; conditions: Supersomes; read-out: IC50 (μM) 2C9
T4 construct: purchased BD Gentest, Becton-Dickinson (Supersomes); host or cells: insect cells (microsomes)
T4 sequence (P11712 whole entry): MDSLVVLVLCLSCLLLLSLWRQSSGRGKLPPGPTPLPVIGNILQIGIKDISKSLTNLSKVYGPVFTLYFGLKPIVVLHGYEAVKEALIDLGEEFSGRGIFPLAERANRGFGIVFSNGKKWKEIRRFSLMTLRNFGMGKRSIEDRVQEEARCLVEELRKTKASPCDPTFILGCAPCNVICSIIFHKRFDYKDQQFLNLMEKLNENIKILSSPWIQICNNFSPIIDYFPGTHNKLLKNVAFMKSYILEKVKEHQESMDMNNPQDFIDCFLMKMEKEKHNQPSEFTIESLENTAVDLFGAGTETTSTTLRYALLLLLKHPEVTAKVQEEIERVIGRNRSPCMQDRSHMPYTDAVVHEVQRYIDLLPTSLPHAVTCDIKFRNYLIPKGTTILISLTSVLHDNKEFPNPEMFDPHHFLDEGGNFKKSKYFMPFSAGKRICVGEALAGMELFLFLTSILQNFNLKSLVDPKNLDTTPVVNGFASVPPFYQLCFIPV
Text: as §1, §2, §3

CYP2D6 = molecular target: T5, CYP2D6 (Homo sapiens, UniProt P10635); experiment: Cytochrome P450 inhibition, CYP2D6; conditions: Supersomes; read-out: IC50 (μM) 2D6
T5 construct: purchased BD Gentest, Becton-Dickinson (Supersomes); host or cells: insect cells (microsomes)
T5 sequence (P10635 whole entry): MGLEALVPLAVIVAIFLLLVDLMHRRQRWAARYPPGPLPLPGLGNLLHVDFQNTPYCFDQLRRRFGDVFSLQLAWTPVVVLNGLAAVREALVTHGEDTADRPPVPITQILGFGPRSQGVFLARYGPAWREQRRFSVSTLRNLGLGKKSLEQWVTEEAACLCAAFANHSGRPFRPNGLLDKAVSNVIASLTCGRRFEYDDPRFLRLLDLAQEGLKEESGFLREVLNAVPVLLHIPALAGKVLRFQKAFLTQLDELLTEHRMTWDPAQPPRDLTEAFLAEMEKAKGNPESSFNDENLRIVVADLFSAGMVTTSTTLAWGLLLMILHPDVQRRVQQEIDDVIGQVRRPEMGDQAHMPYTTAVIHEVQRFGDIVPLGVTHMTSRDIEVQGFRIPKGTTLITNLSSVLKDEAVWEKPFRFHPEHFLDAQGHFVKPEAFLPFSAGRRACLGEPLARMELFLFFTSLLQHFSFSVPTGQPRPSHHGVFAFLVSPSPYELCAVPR
Text: as §1, §2, §3

CYP2E1 = molecular target: T6, CYP2E1 (Homo sapiens, UniProt P05181); experiment: Cytochrome P450 inhibition, CYP2E1; conditions: Supersomes; read-out: IC50 (μM) 2E1
T6 construct: purchased BD Gentest, Becton-Dickinson (Supersomes); host or cells: insect cells (microsomes)
T6 sequence (P05181 whole entry): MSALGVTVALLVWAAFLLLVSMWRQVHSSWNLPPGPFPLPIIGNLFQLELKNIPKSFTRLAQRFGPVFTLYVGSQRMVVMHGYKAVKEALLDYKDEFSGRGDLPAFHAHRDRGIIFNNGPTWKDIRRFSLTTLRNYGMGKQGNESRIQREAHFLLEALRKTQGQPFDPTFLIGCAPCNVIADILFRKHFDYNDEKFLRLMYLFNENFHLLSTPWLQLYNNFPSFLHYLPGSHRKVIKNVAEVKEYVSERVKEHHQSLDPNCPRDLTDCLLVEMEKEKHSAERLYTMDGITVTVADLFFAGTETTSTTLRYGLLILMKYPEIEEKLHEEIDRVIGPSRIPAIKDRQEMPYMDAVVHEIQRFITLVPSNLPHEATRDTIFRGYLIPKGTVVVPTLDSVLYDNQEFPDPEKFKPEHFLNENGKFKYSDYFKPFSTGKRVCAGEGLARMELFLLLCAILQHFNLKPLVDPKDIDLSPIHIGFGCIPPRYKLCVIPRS
Text: as §1, §2, §3

IC50 (CYP1A2) | IC50 (CYP2B6) | IC50 (CYP2C8) | IC50 (CYP2C9) | IC50 (CYP2D6) | IC50 (CYP2E1) | SMILES
> 100 µM | > 100 µM | > 100 µM | 26.9 µM | 30.1 µM | > 100 µM | CCC[C@@H]1NC(=O)[C@@H](C(C)C)NC(=O)[C@@H](Cc2cccc(F)c2)N[C@@H](C)COc2ccccc2CCCNC1=O [Compound 551]
> 100 µM | > 100 µM | > 100 µM | 44.5 µM | 80.8 µM | > 100 µM | CCC[C@@H]1NC(=O)[C@@H](C(C)C)NC(=O)[C@@H](Cc2ccc(O)c(C(C)(C)C)c2)NCCOc2ccccc2CCCNC1=O [Compound 553]
